Measured values reported in patent US8138214B2, “Pharmaceutical composition” (Shanghai Allist Pharmaceutical, Inc., priority 2007, dated 2012).

Tests used:
[1] = tested on: spontaneously hypertensive rat (SHR); assay: Blood pressure in spontaneously hypertensive rat after gavage; format: in vivo; conditions: for blood pressure decrease: SHR, dispersed in physiologic saline
[2] = dog, in vivo, po, 27 mg/kg
Procedure: (I) Beagle dogs are selected as experimental animals, six dogs per group. 2-butyl-4-chloro-1-[2′-(1H-tetrazol-5-yl) 1,1′-biphenyl-methyl]imidazole-5-carboxylic acid, 1-[(isopropoxy)carbonyloxy]methyl ester suspended in physiologic saline is administered in single dose of drug by gavage in dosage level of 3.0 mg/kg, 9.0 mg/kg, and 27 mg/kg. Blood samples were drawn for each dosage group at set time point. […] Determine the level of the active metabolite in plasma, calculate EXP3174's pharmacokinetic parameters according to the concentration-time curve, and investigate the correlation between dosage and main pharmacokinetic parameters Cmax and AUC0-t.

correlation between dosage and Cmax and AUC0-t of EXP3174 [2]: proportional to the dosage
SMILES: CCCCc1nc(Cl)c(C(=O)OCOC(=O)OC(C)C)n1Cc1ccc(-c2ccccc2-c2nnn[nH]2)cc1 [Compound I, 2-butyl-4-chloro-1-[2′-(1H-tetrazol-5-yl)1,1′-biphenyl-methyl]imidazole-5-carboxylic acid, 1-[(isopropoxy)carbonyloxy]methyl ester]
blood pressure decrease ([1]; 15 mg/kg by gavage): 10 mm of mercury column
blood pressure decrease ([1]; 30 mg/kg by gavage): 20 mm of mercury column
antihypertensive effect ([1]; rats, oral dosage no less than 15 mg/kg): significant antihypertensive effect
